Test results published in article PMC10353187, “Discovery of a new potent oxindole multi-kinase inhibitor among a series of designed 3-alkenyl-oxindoles with ancillary carbonic anhydrase inhibitory activity as antiproliferative agents” (BMC Chemistry, 2023).

Assays:
Test in all cases: NCI-60 single-dose antiproliferative assay (SRB)
Format in all cases: cell-based
[1] = tested on: 786-0; details: Homo sapiens; 10 μM single dose; 786-0, Renal cancer; read-out: Cell Growth inhibition Percent
Method in brief: (§1)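 Single 10 μM dose, 48 h at 37 °C in RPMI 1640 with 5% FBS, cells seeded 24 h before dosing. TCA fixation, sulforhodamine B staining, absorbance 515 nm; percent growth derived against time-zero and untreated control plates, triplicate wells.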

[2] = tested on: TK-10; details: Homo sapiens; 10 μM single dose; TK-10, Renal cancer; read-out: Cell Growth inhibition Percent
Method in brief: as §1

[3] = tested on: RXF 393; details: Homo sapiens; 10 μM single dose; RXF 393, Renal cancer; read-out: Cell Growth inhibition Percent
Method in brief: as §1

[4] = tested on: A498; details: Homo sapiens; 10 μM single dose; A498, Renal cancer; read-out: Cell Growth inhibition Percent
Method in brief: as §1

[5] = tested on: A549/ATCC; details: Homo sapiens, 10 μM single dose, Non-small cell lung cancer, read-out: Cell Growth inhibition Percent
Method in brief: as §1

[6] = tested on: SN12C; details: Homo sapiens, 10 μM single dose, Renal cancer, read-out: Cell Growth inhibition Percent
Method in brief: as §1

[7] = tested on: UACC-62; details: Homo sapiens; 10 μM single dose; UACC-62, Melanoma; read-out: Cell Growth inhibition Percent
Method in brief: as §1

[8] = tested on: T-47D; details: Homo sapiens, T47D, 10 μM single dose, Breast cancer, read-out: Cell Growth inhibition Percent
Method in brief: as §1

[9] = tested on: BT-549; details: Homo sapiens; 10 μM single dose; BT-549, Breast cancer; read-out: Cell Growth inhibition Percent
Method in brief: as §1

[10] = tested on: NCI-H522; details: Homo sapiens; 10 μM single dose; NCI-H522, Non-small cell lung cancer; read-out: Cell Growth inhibition Percent
Method in brief: as §1

[11] = tested on: U251; details: Homo sapiens, U-251; 10 μM single dose; U251, CNS cancer; read-out: Cell Growth inhibition Percent
Method in brief: as §1

[12] = tested on: SK-MEL-2; details: Homo sapiens; 10 μM single dose; SK-MEL-2, Melanoma; read-out: Cell Growth inhibition Percent
Method in brief: as §1

[13] = tested on: SNB-19; details: Homo sapiens; 10 μM single dose; SNB-19, CNS cancer; read-out: Cell Growth inhibition Percent
Method in brief: as §1

[14] = tested on: K-562; details: Homo sapiens, K562; 10 μM single dose; K-562, Leukemia; read-out: Cell Growth inhibition Percent
Method in brief: as §1

[15] = tested on: MOLT-4; details: Homo sapiens; 10 μM single dose; MOLT-4, Leukemia; read-out: Cell Growth inhibition Percent
Method in brief: as §1

[16] = tested on: CCRF-CEM; details: Homo sapiens, 10 μM single dose, Leukemia, read-out: Cell Growth inhibition Percent
Method in brief: as §1

[17] = tested on: HCT-15; details: Homo sapiens; 10 μM single dose; HCT-15, Colon cancer; read-out: Cell Growth inhibition Percent
Method in brief: as §1

[18] = tested on: OVCAR-3; details: Homo sapiens; 10 μM single dose; OVCAR-3, Ovarian Cancer; read-out: Cell Growth inhibition Percent
Method in brief: as §1

## O=C1Nc2ccccc2C1=CNc1ccc(C(=O)O)cc1 [Compound 4c, 4-{[(2-Oxoindolin-3-ylidene)methyl]amino}benzoic acid]
[1]
  inhibition at 10 µM: 4.08%
[2]
  inhibition at 10 µM: 19.1%
[3]
  inhibition at 10 µM: 29.6%
[4]
  inhibition at 10 µM: 20.1%
[5]
  inhibition at 10 µM: 9.11%
[6]
  inhibition at 10 µM: 24.8%

## NS(=O)(=O)c1nnc(NC=C2C(=O)Nc3ccccc32)s1 [Compound 4d, 5-{[(2-Oxoindolin-3-ylidene)methyl]amino}-1,3,4-thiadiazole-2-sulfonamide]
[1]
  inhibition at 10 µM: 1.8%
[7]
  inhibition at 10 µM: 3.05%
[8]
  inhibition at 10 µM: 14.8%
[9]
  inhibition at 10 µM: 1.21%
[10]
  inhibition at 10 µM: 0.13%
[11]
  inhibition at 10 µM: 0.06%

## NS(=O)(=O)N/C=C1/C(=O)Nc2ccccc21 [Compound 5, 3-(sulfamidmethylene)indoline-2-one]
[12]
  inhibition at 10 µM: 2.36%
[7]
  inhibition at 10 µM: 4.35%
[8]
  inhibition at 10 µM: 7.19%
[9]
  inhibition at 10 µM: 0.96%
[10]
  inhibition at 10 µM: 5.36%
[11]
  inhibition at 10 µM: 2.06%
[13]
  inhibition at 10 µM: 0.31%

## O=C1Nc2ccccc2C1=CNc1ccc(C(=O)Nc2ccc(S(=O)(=O)Nc3ncccn3)cc2)cc1 [Compound 9b, 4-{[(2-Oxoindolin-3-ylidene)methyl]amino}-N-{4-[N-(pyrimidin-2-yl)sulfamoyl]phenyl}benzamide]
[14]
  inhibition at 10 µM: 3.5%
[1]
  inhibition at 10 µM: 4.99%
[7]
  inhibition at 10 µM: 7.84%
[9]
  inhibition at 10 µM: 27.1%
[4]
  inhibition at 10 µM: 9.11%
[6]
  inhibition at 10 µM: 20.5%

## NS(=O)(=O)c1ccc(NCc2ccc(NC=C3C(=O)Nc4ccccc43)cc2)cc1 [Compound 11a, 4-{[4-({[2-Oxoindolin-3-ylidene]methyl}amino)benzyl]amino}benzenesulfonamide]
[14]
  inhibition at 10 µM: 0.06%
[1]
  inhibition at 10 µM: 0.56%
[8]
  inhibition at 10 µM: 6.76%
[15]
  inhibition at 10 µM: 1.28%
[3]
  inhibition at 10 µM: 26.2%
[5]
  inhibition at 10 µM: 4.86%
[6]
  inhibition at 10 µM: 22.9%

## O=C1Nc2ccccc2C1=CNc1ccc(CNc2ccc(S(=O)(=O)Nc3ncccn3)cc2)cc1 [Compound 11b, 4-{[4-({[2-Oxoindolin-3-ylidene]methyl}amino)benzyl]amino}-N-(pyrimidin-2-yl)benzenesulfonamide]
[14]
  inhibition at 10 µM: 32.8%
[7]
  inhibition at 10 µM: 3.27%
[8]
  inhibition at 10 µM: 27.5%
[9]
  inhibition at 10 µM: 6.46%
[16]
  inhibition at 10 µM: 25.4%
[10]
  inhibition at 10 µM: 6.92%
[17]
  inhibition at 10 µM: 9.43%
[11]
  inhibition at 10 µM: 14.4%

## O=C1Nc2ccccc2C1=CNc1ccc(C(=O)C=CNc2nccs2)cc1 [Compound 13c, 3-{[(4-{3-[Thiazol-2-ylamino]acryloyl}phenyl)amino]methylene}indolin-2-one]
[14]
  inhibition at 10 µM: 24.8%
[9]
  inhibition at 10 µM: 13.6%
[16]
  inhibition at 10 µM: 12.1%
[10]
  inhibition at 10 µM: 2.31%
[18]
  inhibition at 10 µM: 3.91%
[17]
  inhibition at 10 µM: 12%
[5]
  inhibition at 10 µM: 21.6%
[6]
  inhibition at 10 µM: 11.6%

## O=C(Nc1ccc(NC=C2C(=O)Nc3ccccc32)cc1)Nc1nccs1 [Compound 15c, 1-{4-[((2-Oxoindolin-3-ylidene)methyl)amino]phenyl}-3-(thiazol-2-yl)urea]
[14]
  inhibition at 10 µM: 82.7%
[1]
  inhibition at 10 µM: 47.1%
[12]
  inhibition at 10 µM: 37.9%
[7]
  inhibition at 10 µM: 75.1%
[8]
  inhibition at 10 µM: 58.8%
[15]
  inhibition at 10 µM: 67.8%
[18]
  inhibition at 10 µM: 84.6%
[17]
  inhibition at 10 µM: 71%
[2]
  inhibition at 10 µM: 24.3%
[3]
  inhibition at 10 µM: 120%
[4]
  inhibition at 10 µM: 108%
[11]
  inhibition at 10 µM: 58%
[5]
  inhibition at 10 µM: 43.4%
[13]
  inhibition at 10 µM: 69%
[6]
  inhibition at 10 µM: 32%
